Test results as given in patent US11690854B2, “Methods of treating heavy menstrual bleeding” (priority 2018, dated 2023).
Entries after “also recorded” stand apart in the source; their conditions may differ.

How the values were obtained:
[1] = system: rats; test: Fertility study and repeat-dose study in rats; type: in vivo
Description: (§1) Based on pharmacologic actions of elagolix in humans a reversible effect on fertility may be expected in women.

[2] = system: premenopausal women with uterine fibroids; test: Phase 2a trial of Elagolix with or without add-back in uterine fibroids with heavy menstrual bleeding; type: in vivo, human; conditions: for Percent of subjects achieving composite bleeding endpoint (MBL <80 mL at Final Month and ≥50% reduction in MBL from baseline, AH method): last 28 days of treatment, placebo 30%; for Percent of subjects with ≥25% reduction in uterine volume: placebo 9%; for Percent of subjects with ≥25% reduction in fibroid volume: placebo 29%; for Average Total Blood Loss Measured by AH Method During Treatment: 3 months of treatment, placebo 569.7; for Average Total MBL in Days 66-95 Post-Baseline: placebo 190.3; for Average total MBL from days 6-35 post-baseline: placebo 190.5; for Average Total MBL from Days 36-65 Post-Baseline: placebo 194.6
Procedure: Methods for analyzing menstrual blood loss are known in the art and include, for example, the alkaline hematin method. The alkaline hematin method is based on the quantitation of menstrual blood collected on sanitary products (Hallberg L., Nilsoon L., Determination of Menstrual Blood Loss. Scand. J. Clin. Lab. Invest., 1964; 16:244-248). The method uses a strong alkaline solution to chemically convert the heme from bloodstained sanitary products to alkaline hematin, which is measured colorimetrically. When compared to a subject's serum hemoglobin (Hgb), the volume of blood loss in the menstrual products can be determined. […] The study involved the following six (6) cohorts: Cohort 1: […] Cohort 2: Elagolix 300 mg BID or placebo. Cohort 3: […] Cohort 4: […] Cohort 6: […] There are a number of efficacy endpoints, but a composite endpoint consisting of two bleeding assessments was used to assess one measure of efficacy. […] Eighty-five percent (85%), 97%, and 30% of subjects achieved the composite bleeding assessment endpoint in the 200 mg BID, 300 mg BID, and placebo groups, respectively (P<0.05 for 200 mg BID versus placebo in cohort 1, and 300 mg BID versus placebo in cohort 2). […] Quality of life (QoL) measures were also determined using the “Responsiveness of the uterine fibroid symptom and health-related quality of life questionnaire” (UFS-QOL) (Harding, Gale, Coyne Karin S., Thompson Christine L., Spies James B, United BioSource Corporation, 7101 Wisconsin Avenue, Suite 600, Bethesda, Md., 20814, USA, Health and Quality Life Outcomes, 2008, 6, page 99).

[3] = Binding to human plasma proteins; type: in vitro ADME; conditions: read-out: % Bound to human plasma proteins (converted)
[4] = system: women with endometriosis; test: Six Phase 2 studies of elagolix for endometriosis associated pain; type: in vivo, human
Procedure: Efficacy was assessed for dysmenorrhea (DYS), nonmenstrual pelvic pain (NMPP), dyspareunia, and general pelvic pain with a range of instruments. Additional efficacy assessments included quality of life and the use of analgesics for control of endometriosis pain. Across these Phase 2 studies, the enrollment criteria were similar and were intended to select premenopausal women aged 18 to 49 years of age with endometriosis confirmed by visual inspection (laparoscopy or laparotomy within 5 to 8 years of screening) who experienced moderate to severe endometriosis-associated pain. Women were included if they had regular menstrual cycles and no significant uterine fibroids or pelvic lesions. Total daily doses of elagolix ranging from 75 to 250 mg were evaluated across a range of pain instruments measuring […], or general pelvic pain (including patient global impression of change), during 12 or 24 weeks of treatment. […] Overall, 475 women have received elagolix for at least 12 weeks and 278 women for a period of at least 24 weeks. The majority of women were Caucasian (78.9% to 100%), while approximately 7% were black and approximately 4.5% were Hispanic. The mean age across these six Phase 2 studies was 31 to 33 years (range 18 to 48 years) and mean body mass index (BMI) of 23 to 28 kg/m. […] In addition, the majority were receiving analgesic medications (nonsteroidal anti-inflammatory drugs, opioids, and/or other) prior to study enrollment

[5] = system: cytochrome P450 (CYP) 3A enzyme; test: Drug interaction potential: CYP3A
Description: Co-administration with ELAGOLIX may decrease plasma concentration of drugs that are substrates of CYP3A.
Elagolix is a substrate of CYP3A, P-gp, and organic anion transporting polypeptide (OATP)1B1. Clinically meaningful interactions are not expected when ELAGOLIX is co-administered with drugs that inhibit CYP3A or P-gp.

[6] = system: rats; test: Lactation study in rats (secretion in milk); type: in vivo
Procedure: Pregnant rats were given diet containing elagolix throughout the gestation and lactation periods to achieve a daily elagolix dose of 400 mg/kg. During nursing the dams and litters were divided into restricted feeding and non-restricted groups to determine whether elagolix was secreted in the mother's milk. […] In pups of the non-restricted feeding group, elagolix plasma concentrations were measurable and approximately 1% of the mother's plasma concentrations.

[7] = Pharmacokinetic properties of ELAGOLIX in healthy subjects; type: in vivo, human; conditions: for AUC: plasma; for AUC / Cmax: steady state, mean
[8] = system: monkeys; test: Repeat-dose study in monkeys; type: in vivo; conditions: 75, 150, 300 and 600 mg/kg/day, all doses
Description: as §1

[9] = 100 BID, screening 276.4 mL per cycle
[10] = 200 BID, screening 287.4 mL per cycle
[11] = 300 BID, screening 224.8 mL per cycle
[12] = 400 QD, screening 220.3 mL per cycle
[13] = 600 QD, screening 228.7 mL per cycle

COc1cccc(-c2c(C)n(Cc3c(F)cccc3C(F)(F)F)c(=O)n(C[C@H](NCCCC(=O)O)c3ccccc3)c2=O)c1F [Elagolix, 4-((R)-2-[5-(2-fluoro-3-methoxy-phenyl)-3-(2-fluoro-6-trifluoromethyl-benzyl)-4-methyl-2,6-dioxo-3,6-dihydro-2H-pyrimidin-1-yl]-1-phenyl-ethylamino)-butyric acid]
Effect in fertility study ([1]; doses 50, 150, 300 mg/kg/day): no effect | Ovarian findings in repeat-dose study ([1]; doses 600, 800 mg/kg/day): involution and a decrease in corpora lutea in ovaries | Percent of subjects achieving composite bleeding endpoint (MBL <80 mL at Final Month and ≥50% reduction in MBL from baseline, AH method) ([2]; 200 mg BID): 85% | Percent of subjects with ≥25% reduction in uterine volume ([2]; 200 mg BID): 50% | Percent of subjects with ≥25% reduction in fibroid volume ([2]; 200 mg BID): 63% | Inhibition of bleeding ([2]; 300 mg BID without add-back therapy): maximum inhibition of bleeding (most of women achieved amenorrhea) | Women who reported an adverse event of hot flash ([2]; 300 mg BID, 400 mg QD and 600 mg QD without add-back): 50-62.5% | Effect on uterine and fibroid volumes (FIG. 4) ([2]; 300 mg BID, compared with other Elagolix treatments): showed the strongest effects | Percent of subjects achieving composite bleeding endpoint (MBL <80 mL at Final Month and ≥50% reduction in MBL from baseline, AH method) ([2]; 300 mg BID): 97% | Percent of subjects with ≥25% reduction in uterine volume ([2]; 300 mg BID): 68% | Percent of subjects with ≥25% reduction in fibroid volume ([2]; 300 mg BID): 55% | Inhibition of bleeding compared with 300 mg BID ([2]; 400 mg QD and 600 mg QD): slightly less effective | Average Total Blood Loss Measured by AH Method During Treatment ([2]; 100 BID, N = 26): 198.4 mL | Average Total MBL in Days 66-95 Post-Baseline [2, 9]: 65.4 mL | Average total MBL from days 6-35 post-baseline [2, 9]: 33.2 mL | Average Total MBL from Days 36-65 Post-Baseline [2, 9]: 100.9 mL | Average Total Blood Loss Measured by AH Method During Treatment ([2]; 200 BID, N = 28): 47.0 mL | Average Total MBL in Days 66-95 Post-Baseline [2, 10]: 41.5 mL | Average total MBL from days 6-35 post-baseline [2, 10]: 0 mL | Average Total MBL from Days 36-65 Post-Baseline [2, 10]: 5.5 mL | Average Total Blood Loss Measured by AH Method During Treatment ([2]; 300 BID, N = 26): 4.3 mL | Average Total MBL in Days 66-95 Post-Baseline [2, 11]: 4.3 mL | Average total MBL from days 6-35 post-baseline [2, 11]: 0 mL | Average Total MBL from Days 36-65 Post-Baseline [2, 11]: 0 mL | Average Total Blood Loss Measured by AH Method During Treatment ([2]; 400 QD, N = 26): 38.4 mL | Average Total MBL in Days 66-95 Post-Baseline [2, 12]: 21.6 mL | Average total MBL from days 6-35 post-baseline [2, 12]: 14.9 mL | Average Total MBL from Days 36-65 Post-Baseline [2, 12]: 12.4 mL | Average Total Blood Loss Measured by AH Method During Treatment ([2]; 600 QD, N = 24): 69.6 mL | Average Total MBL in Days 66-95 Post-Baseline [2, 13]: 14.9 mL | Average total MBL from days 6-35 post-baseline [2, 13]: 27.6 mL | Average Total MBL from Days 36-65 Post-Baseline [2, 13]: 35.0 mL | fraction unbound [3]: 0.2 | Safety and tolerability ([4]; all daily doses (100 to 250 mg)): safe and well tolerated | Incidence of AEs that led to discontinuations ([4]; completed Phase 2 studies): 4.8% | Effect on DYS and NMPP versus DMPA-SC ([4]; daily dose of 150 mg): comparable effect to subcutaneous depot medroxyprogesterone acetate (DMPA-SC) | Effect versus leuprorelin ([4]; daily doses of 150 mg and 250 mg): less effect compared with leuprorelin | Reduction in endometriosis-associated pain ([4]; daily doses of 100 to 250 mg, 12 or 24 weeks): clinically meaningful reductions in endometriosis-associated pain | Days of bleeding per month (eDiary) ([4]; versus placebo): fewer days of bleeding per month compared with patients who received placebo | Induction of CYP3A [5]: weak to moderate inducer | Substrate of CYP3A [5]: substrate | Elagolix plasma concentrations in pups relative to the mother's plasma concentrations ([6]; non-restricted feeding group, dams 400 mg/kg daily in diet): approximately 1% | Secretion in milk ([6]; rats, pup plasma as surrogate of exposure via lactation): minimally secreted in milk | Elagolix plasma concentrations in pups ([6]; restricted feeding litters, post natal day 10 and 20, dams 400 mg/kg daily in diet): not measurable | Tmax ([7]; healthy subjects): 1.0 h | blood plasma ratio ([7]; human, blood and plasma): 0.6 | Major route of elimination ([7]; human, in vivo): Hepatic metabolism | Metabolism, minor pathways ([7]; human, in vivo): glucuronosyltransferases (UGTs) | half-life ([7]; human, in vivo, oral, healthy subjects, read-out: Terminal phase elimination half-life (t½)): 4 to 6 h | Metabolism, minor pathways ([7]; human, in vivo, listed as ELAGOLIX): Minor pathways include: CYP2D6,; also recorded: CYP2C8, and uridine | AUC ([7]; human, oral, 150 mg QD, τ 24 hours, % CV 31): 1.29 µg·h/mL | AUC ([7]; human, oral, 200 mg BID, τ 12 hours, % CV 57): 1.73 µg·h/mL | Metabolism ([7]; major pathway): CYP3A (major) | Cmax ([7]; 150 mg QD, % CV 29): 0.574 µg/mL | Cmax ([7]; 200 mg BID, % CV 68): 0.774 µg/mL | Reproductive organ findings in repeat-dose study [8]: reversible atrophy of reproductive organs (cervix, uterus and vagina)
